From patent US7572920B2, “Benzimidazole derivative and use as a II receptor antagonist” (Takeda Pharmaceutical Company Limited, priority 2004, dated 2009)
Marks after values point to notes of the source that are not given here.

Experiments:
[1] = system: angiotensin II induced pressor response; experiment: Inhibition of angiotensin II induced pressor response in rats; format: in vivo, Male Sprague-Dawley rats; settings: AII 100 ng/kg i.v., test compound p.o. at dose equimolar to compound A (0.10-0.14 mg/kg), in 0.5% methylcellulose, mean±SEM
Description: Inhibitory Effects of Compounds of the Present Invention Against Angiotensin II Induced Pressor Response in Rats
Male Sprague-Dawley rats (9-11 weeks old, CLEA Japan, Inc.) were anesthetized with pentobarbital (50 mg/kg, i.p.) and the femoral artery and vein were isolated and cannulated with polyethylene tubes filled with saline containing heparin (200 U/mL). The catheters were subcutaneously inserted to a site in the back of the neck and fixed. After recovery period, the rat was subjected to the experiment. The arterial catheter was connected to a pressure transducer coupled to a blood pressure monitor amplifier (2238, NEC San-ei Instruments) and the pressure was recorded on a recorder (RECTI-HORIZ 8K, NEC San-ei Instruments). After establishing angiotensin II (AII, 100 ng/kg, i.v.) induced pressor responses, a test compound at a dose corresponding to an equimolar amount of compound A (2-ethoxy-1-{[2′-(5-oxo-4,5-dihydro-1,2,4-oxadiazol-3-yl)biphenyl-4-yl]methyl}-1H-benzimidazole-7-carboxylic acid) was administered. AII was administered 24 hours later and increase in the blood pressure was measured, based on which the inhibition rate from the value before the administration was calculated. All compounds were suspended in 0.5% methylcellulose and orally administered at a volume of 2 mL/kg.
The results are shown in mean±SEM (Table 1). The significance between the group administered with the compound obtained in Example 5 and the other groups was analyzed using Student's t-test ([…]).

[2] = system: angiotensin II induced pressor response; experiment: Inhibition of angiotensin II induced pressor response in dogs; format: in vivo, male beagles; settings: fasting, AII 100 ng/kg i.v., test compound p.o. at dose equimolar to compound A 1 mg/kg, in 0.5% methylcellulose, mean±SEM
Description: Inhibitory Effects of the Compounds of the Present Invention Against Angiotensin II Induced Pressor Response in Dogs
For the experiment, male beagles (body weight 12.0-14.7 kg, KITAYAMA LABES, CO., LTD.) were used. They were anesthetized with sodium pentobarbital (50 mg/kg, i.p.), and a tracheal tube was inserted for management of the airway. The femoral region and the back of the neck were shaved, and a disinfectant (Isodine solution, MEIJI SEIKA KAISHA, LTD.) was applied. The dog was fixed at the dorsal position and the right femoral region was incised. A mirror catheter (5 F, MILLER INDUSTRIES) was inserted and placed in the femoral artery and a polyurethane tube in the femoral vein. The catheter and tube were passed through subcutaneously and fixed at the back region. The incised region was sutured thereafter and penicillin G potassium (MEIJI SEIKA KAISHA, LTD., 40000 units) was intramuscularly administered to prevent infection. Beginning from the next day, penicillin G potassium (40000 units) was administered once a day for 3 days. After 3 days for recovery, the dog was subjected to the experiment.
During the experiment, the dog was placed in a small metabolic cage. For measurement, the mirror catheter inserted in the femoral artery was connected to a transducer unit (MILLER INDUSTRIES), and the systemic blood pressure (average blood pressure) was recorded on a recorder (RECTI-HORIZ 8 K, NEC San-ei Instruments) through a DC amplifier (N4777, NEC San-ei Instruments) and a blood pressure monitor amplifier (N4441, NEC San-ei Instruments). The polyurethane tube inserted in the femoral vein was fixed outside the cage and used for administration of AII (PEPTIDE INSTITUTE, INC.). The experiment was conducted under fasting and AII (100 ng/kg, i.v.) was administered 3 or 4 times before administration of a test compound to confirm stabilization of the vasopressor response. A dose of the test compound corresponding to an equimolar amount of compound A was suspended in 0.5% methylcellulose and orally administered at a volume of 2 mL/kg. After drug administration, AII was administered at each time point of measurement and increase in the blood pressure was measured, based on which the inhibition rate from the value before the administration was calculated.
The results are shown in mean±SEM (Table 2). The significance between the group administered with the compound obtained in Example 5 and the group administered with compound A was analyzed using Student's t-test with Bonferroni correction ([…]).

Row | SMILES | inhibition rate of AII induced increase in blood pressure, 24 hrs after administration [1] | inhibition rate of AII induced increase in blood pressure, 10 hrs after administration [2] | inhibition rate of AII induced increase in blood pressure, 24 hrs after administration [2]
1 | CCOc1nc2cccc(C(=O)OCOC(C)=O)c2n1Cc1ccc(-c2ccccc2-c2noc(=O)[nH]2)cc1 [compound D, acetoxymethyl 2-ethoxy-1-{[2′-(5-oxo-4,5-dihydro-1,2,4-oxadiazol-3-yl)biphenyl-4-yl]methyl}-1H-benzimidazole-7-carboxylate] | 10.9 ± 5.6* | – | –
2 | CCOc1nc2cccc(C(=O)OC)c2n1Cc1ccc(-c2ccccc2-c2noc(=O)[nH]2)cc1 [compound B, methyl 2-ethoxy-1-{[2′-(5-oxo-4,5-dihydro-1,2,4-oxadiazol-3-yl)biphenyl-4-yl]methyl}-1H-benzimidazole-7-carboxylate] | 0.8 ± 4.9** | – | –
3 | CCOc1nc2cccc(C(=O)O)c2n1Cc1ccc(-c2ccccc2-c2noc(=O)[nH]2)cc1 [compound A, 2-ethoxy-1-{[2′-(5-oxo-4,5-dihydro-1,2,4-oxadiazol-3-yl)biphenyl-4-yl]methyl}-1H-benzimidazole-7-carboxylic acid] | – | 27.0 ± 3.2 | 19.6 ± 3.7
4 | CCOc1nc2cccc(C(=O)OCc3oc(=O)oc3C)c2n1Cc1ccc(-c2ccccc2-c2noc(=O)[nH]2)cc1.[K] [Example 5, (5-methyl-2-oxo-1,3-dioxol-4-yl)methyl 2-ethoxy-1-{[2′-(5-oxo-4,5-dihydro-1,2,4-oxadiazol-3-yl)biphenyl-4-yl]methyl}-1H-benzimidazole-7-carboxylate potassium salt] | 32.7 ± 4.6 | 55.6 ± 3.4** | 40.3 ± 5.1*
5 | CCOc1nc2cccc(C(=O)OC(C)OC(=O)OC3CCCCC3)c2n1Cc1ccc(-c2ccccc2-c2noc(=O)[nH]2)cc1 (stereo not shown) [compound C, 1-(cyclohexyloxycarbonyloxy)ethyl 2-ethoxy-1-{[2′-(5-oxo-4,5-dihydro-1,2,4-oxadiazol-3-yl)biphenyl-4-yl]methyl}-1H-benzimidazole-7-carboxylate] | 9.3 ± 8.6* | – | –
6 | CCOc1nc2cccc(C(=O)OCc3oc(=O)oc3C)c2n1Cc1ccc(-c2ccccc2-c2noc(=O)[nH]2)cc1 [Example 2, (5-methyl-2-oxo-1,3-dioxol-4-yl)methyl 2-ethoxy-1-{[2′-(5-oxo-4,5-dihydro-1,2,4-oxadiazol-3-yl)biphenyl-4-yl]methyl}-1H-benzimidazole-7-carboxylate] | – | 35.9 ± 4.8 | 28.6 ± 4.1
